Laboratory results taken from patent US20100168149A1, “Camptothecin Analogue Compounds, a Process for Their Preparation and Pharmaceutical Compositions Containing Them” (priority 2005, published 2010).

Key:
[1] = tested on: human colon carcinoma HT29; experiment: In vitro cytotoxicity, Microculture Tetrazolium Assay, HT29; format: cell-based; conditions: HT-29, HT29, 96 hours exposure, read-out: IC50 (concentration of cytotoxic agent which inhibits proliferation of the treated cells by 50%)
Experimental: (§1) The murine leukaemia L1210 and the human colon carcinomas HCT116 and HT29 were used in vitro. The cells are cultured in RPMI 1640 complete culture medium containing 10% foetal calf serum, 2 mM glutamine, 50 units/ml of penicillin, 50 μg/ml of streptomycin and 10 mM Hepes, pH=7.4. The cells are distributed on microplates and are exposed to the cytotoxic compounds for 4 doubling times, that is to say 48 hours (L1210) or 96 hours (HCT116 and HT29). The number of viable cells is then quantified by a […] assay, the Microculture Tetrazolium Assay (J. Carmichael et al., Cancer Res.; 47, 936-942, (1987)). The results are expressed in terms of the IC50 (the concentration of cytotoxic agent which inhibits proliferation of the treated cells by 50%).

murine leukaemia L1210 = experiment: In vitro cytotoxicity, Microculture Tetrazolium Assay, L1210; format: cell-based; conditions: Mus musculus; L1210, 48 hours exposure; read-out: IC50 (concentration of cytotoxic agent which inhibits proliferation of the treated cells by 50%)
Experimental: as §1

Row | Compound | IC50 [1] [nM] | IC50 (murine leukaemia L1210) [nM]
1 | CCC1(O)C(=O)Cc2c1cc1n(c2=O)Cc2c-1nc1cc3c(cc1c2-c1ccc(N(C)C)cc1)OCO3 (stereo not drawn) [Example 6, 7-Ethyl-2,3-methylenedioxy-7-hydroxy-13-[4-(dimethylamino)phenyl]-9,12-dihydro-7H-cyclopenta[6,7]indolizino[1,2-b]quinoline-8,10-dione] | 4.7 | 10.4
2 | CCC1(O)C(=O)Cc2c1cc1n(c2=O)Cc2c-1nc1cc3c(cc1c2-c1ccc(C)cc1)OCO3 (stereo not drawn) [Example 1, 7-Ethyl-7-hydroxy-2,3-methylenedioxy-13-(4-methylphenyl)-9,12-dihydro-7H-cyclopenta[6,7]indolizino[1,2-b]quinoline-8,10-dione] | 3.2 | 
